Test results as given in the NIST ThermoML archive (doi:10.1016/j.fluid.2017.12.010).
Numbers after ± are expanded uncertainties.

Assay: xn = mol fraction of the nth substance listed
Conditions: Liquid, Vibrating tube method, x1 = 1

Work on CCCCCCCCCC [decane] + CCCCCCCCCCCC yielded a mass density (283.55 K, 5000 kPa) of 742 ± 3 kg/m3, a mass density (283.56 K, 3000 kPa) of 740 ± 3 kg/m3 and a mass density (283.56 K, 20000 kPa) of 752 ± 3 kg/m3. For the same compound, the mass density (283.56 K, 30000 kPa) was 758 ± 3 kg/m3, the mass density (283.56 K, 40000 kPa) was 763 ± 3 kg/m3 and the mass density (283.56 K, 50000 kPa) was 769 ± 3 kg/m3. For the same compound, the mass density (283.56 K, 60000 kPa) was 774 ± 3 kg/m3, the mass density (283.56 K, 70000 kPa) was 779 ± 3 kg/m3 and the mass density (283.56 K, 80000 kPa) was 783 ± 3 kg/m3. It also gave a mass density (283.56 K, 90000 kPa) of 788 ± 3 kg/m3, a mass density (283.57 K, 1000 kPa) of 739 ± 3 kg/m3 and a mass density (283.57 K, 10000 kPa) of 745 ± 3 kg/m3. For the same compound, the mass density (283.58 K, 100 kPa) was 738 ± 3 kg/m3, the mass density (293.48 K, 100 kPa) was 731 ± 3 kg/m3 and the mass density (293.48 K, 1000 kPa) was 731 ± 3 kg/m3. It also gave a mass density (293.49 K, 5000 kPa) of 734 ± 3 kg/m3, a mass density (293.49 K, 10000 kPa) of 738 ± 3 kg/m3 and a mass density (293.49 K, 20000 kPa) of 745 ± 3 kg/m3. It also gave a mass density (293.5 K, 30000 kPa) of 751 ± 3 kg/m3, a mass density (293.5 K, 40000 kPa) of 757 ± 3 kg/m3 and a mass density (293.5 K, 50000 kPa) of 763 ± 3 kg/m3. The mass density (293.5 K, 100000 kPa) was 787 ± 3 kg/m3, the mass density (293.51 K, 60000 kPa) was 768 ± 3 kg/m3 and the mass density (293.51 K, 70000 kPa) was 773 ± 3 kg/m3. The mass density (293.51 K, 80000 kPa) was 778 ± 3 kg/m3, the mass density (293.51 K, 90000 kPa) was 783 ± 3 kg/m3 and the mass density (303.42 K, 100 kPa) was 723 ± 3 kg/m3. It also gave a mass density (303.42 K, 1000 kPa) of 724 ± 3 kg/m3, a mass density (303.42 K, 10000 kPa) of 731 ± 3 kg/m3 and a mass density (303.42 K, 30000 kPa) of 745 ± 3 kg/m3. For the same compound, the mass density (303.42 K, 40000 kPa) was 751 ± 3 kg/m3, the mass density (303.42 K, 70000 kPa) was 768 ± 3 kg/m3 and the mass density (303.42 K, 80010 kPa) was 773 ± 3 kg/m3. It also gave a mass density (303.42 K, 90000 kPa) of 777 ± 3 kg/m3, a mass density (303.43 K, 5000 kPa) of 727 ± 3 kg/m3 and a mass density (303.43 K, 20000 kPa) of 738 ± 3 kg/m3. The mass density (303.43 K, 50000 kPa) was 757 ± 3 kg/m3, the mass density (303.43 K, 60000 kPa) was 762 ± 3 kg/m3 and the mass density (303.43 K, 100000 kPa) was 782 ± 3 kg/m3. The mass density (313.35 K, 100 kPa) was 716 ± 3 kg/m3, the mass density (313.35 K, 1000 kPa) was 717 ± 3 kg/m3 and the mass density (313.35 K, 5000 kPa) was 721 ± 3 kg/m3. It also gave a mass density (313.35 K, 40000 kPa) of 746 ± 3 kg/m3, a mass density (313.36 K, 20000 kPa) of 732 ± 3 kg/m3 and a mass density (313.36 K, 50000 kPa) of 752 ± 3 kg/m3. It also gave a mass density (313.36 K, 70000 kPa) of 763 ± 3 kg/m3, a mass density (313.36 K, 80000 kPa) of 768 ± 3 kg/m3 and a mass density (313.36 K, 90000 kPa) of 773 ± 3 kg/m3. The mass density (313.36 K, 100000 kPa) was 777 ± 3 kg/m3, the mass density (313.37 K, 10000 kPa) was 725 ± 3 kg/m3 and the mass density (313.37 K, 30000 kPa) was 739 ± 3 kg/m3. The mass density (313.37 K, 60000 kPa) was 757 ± 3 kg/m3, the mass density (323.24 K, 100 kPa) was 708 ± 3 kg/m3 and the mass density (323.24 K, 1000 kPa) was 709 ± 3 kg/m3. For the same compound, the mass density (323.24 K, 100000 kPa) was 771 ± 3 kg/m3, the mass density (323.25 K, 5000 kPa) was 712 ± 3 kg/m3 and the mass density (323.25 K, 10000 kPa) was 717 ± 3 kg/m3. It also gave a mass density (323.25 K, 20000 kPa) of 725 ± 3 kg/m3, a mass density (323.25 K, 30000 kPa) of 732 ± 3 kg/m3 and a mass density (323.25 K, 40000 kPa) of 739 ± 3 kg/m3. The mass density (323.25 K, 50000 kPa) was 745 ± 3 kg/m3, the mass density (323.25 K, 60000 kPa) was 751 ± 3 kg/m3 and the mass density (323.25 K, 70000 kPa) was 757 ± 3 kg/m3. For the same compound, the mass density (323.25 K, 80000 kPa) was 762 ± 3 kg/m3, the mass density (323.25 K, 90000 kPa) was 767 ± 3 kg/m3 and the mass density (333.12 K, 5000 kPa) was 705 ± 3 kg/m3. For the same compound, the mass density (333.12 K, 10000 kPa) was 710 ± 3 kg/m3, the mass density (333.12 K, 20000 kPa) was 718 ± 3 kg/m3 and the mass density (333.13 K, 100 kPa) was 700 ± 3 kg/m3. The mass density (333.13 K, 1000 kPa) was 701 ± 3 kg/m3, the mass density (333.13 K, 30000 kPa) was 726 ± 3 kg/m3 and the mass density (333.13 K, 80000 kPa) was 757 ± 3 kg/m3. The mass density (333.13 K, 90000 kPa) was 762 ± 3 kg/m3, the mass density (333.13 K, 100000 kPa) was 767 ± 3 kg/m3 and the mass density (333.14 K, 40000 kPa) was 733 ± 3 kg/m3. For the same compound, the mass density (333.14 K, 50000 kPa) was 740 ± 3 kg/m3, the mass density (333.14 K, 60000 kPa) was 746 ± 3 kg/m3 and the mass density (333.14 K, 70000 kPa) was 751 ± 3 kg/m3. The mass density (343.01 K, 100 kPa) was 693 ± 3 kg/m3, the mass density (343.01 K, 1000 kPa) was 694 ± 3 kg/m3 and the mass density (343.01 K, 10000 kPa) was 703 ± 3 kg/m3. For the same compound, the mass density (343.01 K, 20000 kPa) was 712 ± 3 kg/m3, the mass density (343.01 K, 30000 kPa) was 720 ± 3 kg/m3 and the mass density (343.01 K, 40000 kPa) was 727 ± 3 kg/m3. For the same compound, the mass density (343.01 K, 50000 kPa) was 734 ± 3 kg/m3, the mass density (343.01 K, 60000 kPa) was 740 ± 3 kg/m3 and the mass density (343.02 K, 5000 kPa) was 698 ± 3 kg/m3. It also gave a mass density (343.02 K, 70000 kPa) of 746 ± 3 kg/m3, a mass density (343.02 K, 80000 kPa) of 752 ± 3 kg/m3 and a mass density (343.02 K, 90000 kPa) of 757 ± 3 kg/m3. For the same compound, the mass density (343.02 K, 100000 kPa) was 762 ± 3 kg/m3, the mass density (352.87 K, 100 kPa) was 686 ± 3 kg/m3 and the mass density (352.87 K, 1000 kPa) was 687 ± 3 kg/m3. It also gave a mass density (352.87 K, 5000 kPa) of 691 ± 3 kg/m3, a mass density (352.88 K, 10000 kPa) of 696 ± 3 kg/m3 and a mass density (352.88 K, 20000 kPa) of 706 ± 3 kg/m3. The mass density (352.88 K, 30000 kPa) was 714 ± 3 kg/m3, the mass density (352.88 K, 40000 kPa) was 722 ± 3 kg/m3 and the mass density (352.88 K, 50000 kPa) was 729 ± 3 kg/m3. It also gave a mass density (352.88 K, 60000 kPa) of 735 ± 3 kg/m3, a mass density (352.89 K, 70000 kPa) of 741 ± 3 kg/m3 and a mass density (352.89 K, 80000 kPa) of 747 ± 3 kg/m3. The mass density (352.89 K, 90000 kPa) was 753 ± 3 kg/m3, the mass density (352.89 K, 100000 kPa) was 758 ± 3 kg/m3 and the mass density (362.69 K, 100 kPa) was 677 ± 3 kg/m3. It also gave a mass density (362.69 K, 1000 kPa) of 678 ± 3 kg/m3, a mass density (362.7 K, 5000 kPa) of 683 ± 3 kg/m3 and a mass density (362.7 K, 10000 kPa) of 689 ± 3 kg/m3. It also gave a mass density (362.71 K, 20000 kPa) of 699 ± 3 kg/m3, a mass density (362.71 K, 30000 kPa) of 708 ± 3 kg/m3 and a mass density (362.71 K, 40000 kPa) of 716 ± 3 kg/m3. The mass density (362.71 K, 50000 kPa) was 723 ± 3 kg/m3, the mass density (362.71 K, 60000 kPa) was 730 ± 3 kg/m3 and the mass density (362.72 K, 70000 kPa) was 736 ± 3 kg/m3. The mass density (362.72 K, 80000 kPa) was 742 ± 3 kg/m3, the mass density (362.72 K, 90000 kPa) was 747 ± 3 kg/m3 and the mass density (362.72 K, 100000 kPa) was 753 ± 3 kg/m3.
